Reference: ChEMBL document CHEMBL5729239, “Aryl, heteroaryl, and heterocyclic compounds for treatment of immune and inflammatory disorders” (2022)

Molecular target: Complement factor D (Homo sapiens, UniProt P00746)
Assay: Human Factor D Assay: Human Factor D (purified from human serum, Complement Technology, Inc.) at 80 nM final concentration is incubated with test compound at various concentrations for 5 min at room temperature in 50 mM Tris, 1M NaCl, pH 7.5. A synthetic substrate Z-L-Lys-SBzl and DTNB (Ellman's reagent) are added to final concentrations of 100 μM each. […] IC50 values are calculated by nonlinear regression of complement Factor D reaction rates as a function of test compound concentration.

Complement factor D, sequence (P00746 whole entry): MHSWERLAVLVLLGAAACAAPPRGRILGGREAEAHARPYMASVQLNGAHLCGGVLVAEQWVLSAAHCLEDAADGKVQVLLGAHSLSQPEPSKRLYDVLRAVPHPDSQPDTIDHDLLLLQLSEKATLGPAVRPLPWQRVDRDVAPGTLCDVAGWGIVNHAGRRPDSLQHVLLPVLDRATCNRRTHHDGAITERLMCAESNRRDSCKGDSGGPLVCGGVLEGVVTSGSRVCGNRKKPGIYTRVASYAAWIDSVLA

Compared with CC(=O)c1nn(CC(=O)N2C[C@H](F)C[C@H]2C(=O)O)c2ccc(-c3cnc(C)nc3)cc12, CC(=O)c1nn(CC(=O)N2C[C@H](F)C[C@H]2C(=O)NCCC(C)(C)C)c2ccc(-c3cnc(C)nc3)cc12 is lower in IC50: greater than 10 µM for the first, less than 1 µM for the second.

First: Cc1cccc(CC(O)[C@@H]2C[C@@H](F)CN2C(=O)Cn2cc(C(N)=O)c3cc(-c4cnc5cc(C)nn5c4)ccc32)n1 (stereo partly specified)
Second: CC(=O)c1nn(CC(=O)N2C[C@H](F)C[C@H]2C(=O)NCCOC(F)(F)F)c2ccc(-c3cnc(C)nc3)cc12
The IC50 of the first is higher: greater than 10 µM for the first, less than 1 µM for the second. The second is the more potent here.

NC(=O)c1cc(-c2ccco2)n(CC(=O)N2C[C@H](F)C[C@H]2C(=O)Nc2cccc(Br)n2)n1 and CC(=O)c1nn(CC(=O)N2C[C@H](F)C[C@H]2C(=O)Nc2cccc(-c3ccccc3Cl)c2F)c2ccc(N3C[C@H]4CCCC[C@H]4C3)cc12 cannot be ordered by IC50: less than 1 µM for the first, less than 1 µM for the second.
